Tests used:
TIE1 = molecular target: T1, TIE1 (Homo sapiens, UniProt P35590); assay: kinome scan; assay type: binding; conditions: 10 µM
T1 construct: purchased DiscoverX (KINOMEscan)

PIK3C2G = molecular target: T2, PIK3C2G (Homo sapiens, UniProt O75747); assay: kinome scan; assay type: binding
T2 construct: purchased DiscoverX (KINOMEscan)

NEK4 = molecular target: T3, NEK4 (Homo sapiens, UniProt P51957); assay: kinome scan; assay type: binding; conditions: 10 µM
T3 construct: purchased DiscoverX (KINOMEscan)

[1] = molecular target: T4, ABL1(H396P)-phosphorylated (Homo sapiens, UniProt P00519, H396P); assay: kinome scan; assay type: binding; conditions: 10 µM
T4 construct: purchased DiscoverX (KINOMEscan)

JNK1 = molecular target: T5, JNK1 (Homo sapiens, UniProt P45983); assay: kinome scan; assay type: binding; conditions: 10 µM
T5 construct: purchased DiscoverX (KINOMEscan)

DCAMKL3 = molecular target: T6, DCAMKL3 (Homo sapiens, UniProt Q9C098); assay: kinome scan; assay type: binding; conditions: 10 µM
T6 construct: purchased DiscoverX (KINOMEscan)

DLK = molecular target: T7, DLK (Homo sapiens, UniProt Q12852); assay: kinome scan; assay type: binding; conditions: 10 µM
T7 construct: purchased DiscoverX (KINOMEscan)

PIK3CA(E545K) = molecular target: T8, PIK3CA(E545K) (Homo sapiens, UniProt P42336, E545K); assay: kinome scan; assay type: binding; conditions: 10 µM
T8 construct: purchased DiscoverX (KINOMEscan)
T8 sequence (P42336 whole entry E545K): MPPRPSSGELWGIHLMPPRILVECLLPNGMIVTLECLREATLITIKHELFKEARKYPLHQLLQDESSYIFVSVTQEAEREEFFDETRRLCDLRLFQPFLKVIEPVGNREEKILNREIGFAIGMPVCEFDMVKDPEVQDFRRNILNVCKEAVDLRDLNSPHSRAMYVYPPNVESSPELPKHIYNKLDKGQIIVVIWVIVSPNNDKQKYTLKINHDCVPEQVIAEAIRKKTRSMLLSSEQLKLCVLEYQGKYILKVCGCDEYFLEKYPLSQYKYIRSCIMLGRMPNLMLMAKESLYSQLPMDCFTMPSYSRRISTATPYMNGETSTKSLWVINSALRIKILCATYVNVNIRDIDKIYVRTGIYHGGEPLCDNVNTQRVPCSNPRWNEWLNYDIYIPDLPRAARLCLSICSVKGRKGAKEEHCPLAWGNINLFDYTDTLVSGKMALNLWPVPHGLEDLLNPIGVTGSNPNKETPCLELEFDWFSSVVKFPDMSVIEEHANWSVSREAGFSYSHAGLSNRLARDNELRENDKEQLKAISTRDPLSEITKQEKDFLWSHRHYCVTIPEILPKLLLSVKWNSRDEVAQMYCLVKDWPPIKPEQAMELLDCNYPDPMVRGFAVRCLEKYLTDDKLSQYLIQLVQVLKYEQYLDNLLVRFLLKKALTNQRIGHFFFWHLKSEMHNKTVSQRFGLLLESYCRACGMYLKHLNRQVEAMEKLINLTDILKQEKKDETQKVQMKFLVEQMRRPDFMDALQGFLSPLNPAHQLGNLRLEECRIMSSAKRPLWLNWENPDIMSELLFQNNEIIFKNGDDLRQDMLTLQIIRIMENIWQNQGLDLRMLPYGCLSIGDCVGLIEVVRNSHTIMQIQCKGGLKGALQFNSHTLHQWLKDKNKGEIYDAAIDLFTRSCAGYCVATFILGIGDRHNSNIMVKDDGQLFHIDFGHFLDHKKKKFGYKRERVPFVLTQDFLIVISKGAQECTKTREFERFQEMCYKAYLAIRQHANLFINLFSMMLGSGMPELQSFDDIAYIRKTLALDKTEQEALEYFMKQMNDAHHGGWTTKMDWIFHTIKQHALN

ERBB3 = molecular target: T9, ERBB3 (Homo sapiens, UniProt P21860); assay: kinome scan; assay type: binding; conditions: 10 µM
T9 construct: purchased DiscoverX (KINOMEscan)

CDK5 = molecular target: T10, CDK5 (Homo sapiens, UniProt Q00535); assay: kinome scan; assay type: binding; conditions: 10 µM
T10 construct: purchased DiscoverX (KINOMEscan)
T10 sequence (Q00535 whole entry): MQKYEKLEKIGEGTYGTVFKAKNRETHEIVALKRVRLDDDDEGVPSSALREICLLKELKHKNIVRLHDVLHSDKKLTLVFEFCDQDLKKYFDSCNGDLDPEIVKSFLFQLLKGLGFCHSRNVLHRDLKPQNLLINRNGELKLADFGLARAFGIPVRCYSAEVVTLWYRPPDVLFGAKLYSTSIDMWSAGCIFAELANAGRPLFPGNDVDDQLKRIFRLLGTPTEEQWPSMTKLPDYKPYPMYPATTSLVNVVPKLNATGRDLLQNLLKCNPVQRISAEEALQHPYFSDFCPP

CLK1 = molecular target: T11, CLK1 (Homo sapiens, UniProt P49759); assay: kinome scan; assay type: binding; conditions: 10 µM
T11 construct: purchased DiscoverX (KINOMEscan)

ERK3 = molecular target: T12, ERK3 (Homo sapiens, UniProt Q16659); assay: kinome scan; assay type: binding; conditions: 10 µM
T12 construct: purchased DiscoverX (KINOMEscan)

IRAK4 = molecular target: T13, IRAK4 (Homo sapiens, UniProt Q9NWZ3); assay: kinome scan; assay type: binding; conditions: 10 µM
T13 construct: purchased DiscoverX (KINOMEscan)

FLT1 = molecular target: T14, FLT1 (Homo sapiens, UniProt P17948); assay: kinome scan; assay type: binding; conditions: 10 µM
T14 construct: purchased DiscoverX (KINOMEscan)

TAOK2 = molecular target: T15, TAOK2 (Homo sapiens, UniProt Q9UL54); assay: kinome scan; assay type: binding; conditions: 10 µM
T15 construct: purchased DiscoverX (KINOMEscan)

CTK = molecular target: T16, CTK (Homo sapiens, UniProt P42679); assay: kinome scan; assay type: binding; conditions: 10 µM
T16 construct: purchased DiscoverX (KINOMEscan)

EPHB2 = molecular target: T17, EPHB2 (Homo sapiens, UniProt P29323); assay: kinome scan; assay type: binding; conditions: 10 µM
T17 construct: purchased DiscoverX (KINOMEscan)

FYN = molecular target: T18, FYN (Homo sapiens, UniProt P06241); assay: kinome scan; assay type: binding; conditions: 10 µM
T18 construct: purchased DiscoverX (KINOMEscan)

AAK1 = molecular target: T19, AAK1 (Homo sapiens, UniProt Q2M2I8); assay: kinome scan; assay type: binding; conditions: 10 µM
T19 construct: purchased DiscoverX (KINOMEscan)

KIT(D816V) = molecular target: T20, KIT(D816V) (Homo sapiens, UniProt P10721, D816V); assay: kinome scan; assay type: binding; conditions: 10 µM
T20 construct: purchased DiscoverX (KINOMEscan)

KIT(V559D) = molecular target: T21, KIT(V559D) (Homo sapiens, UniProt P10721, V559D); assay: kinome scan; assay type: binding
T21 construct: purchased DiscoverX (KINOMEscan)
T21 sequence (P10721 26-976 V559D): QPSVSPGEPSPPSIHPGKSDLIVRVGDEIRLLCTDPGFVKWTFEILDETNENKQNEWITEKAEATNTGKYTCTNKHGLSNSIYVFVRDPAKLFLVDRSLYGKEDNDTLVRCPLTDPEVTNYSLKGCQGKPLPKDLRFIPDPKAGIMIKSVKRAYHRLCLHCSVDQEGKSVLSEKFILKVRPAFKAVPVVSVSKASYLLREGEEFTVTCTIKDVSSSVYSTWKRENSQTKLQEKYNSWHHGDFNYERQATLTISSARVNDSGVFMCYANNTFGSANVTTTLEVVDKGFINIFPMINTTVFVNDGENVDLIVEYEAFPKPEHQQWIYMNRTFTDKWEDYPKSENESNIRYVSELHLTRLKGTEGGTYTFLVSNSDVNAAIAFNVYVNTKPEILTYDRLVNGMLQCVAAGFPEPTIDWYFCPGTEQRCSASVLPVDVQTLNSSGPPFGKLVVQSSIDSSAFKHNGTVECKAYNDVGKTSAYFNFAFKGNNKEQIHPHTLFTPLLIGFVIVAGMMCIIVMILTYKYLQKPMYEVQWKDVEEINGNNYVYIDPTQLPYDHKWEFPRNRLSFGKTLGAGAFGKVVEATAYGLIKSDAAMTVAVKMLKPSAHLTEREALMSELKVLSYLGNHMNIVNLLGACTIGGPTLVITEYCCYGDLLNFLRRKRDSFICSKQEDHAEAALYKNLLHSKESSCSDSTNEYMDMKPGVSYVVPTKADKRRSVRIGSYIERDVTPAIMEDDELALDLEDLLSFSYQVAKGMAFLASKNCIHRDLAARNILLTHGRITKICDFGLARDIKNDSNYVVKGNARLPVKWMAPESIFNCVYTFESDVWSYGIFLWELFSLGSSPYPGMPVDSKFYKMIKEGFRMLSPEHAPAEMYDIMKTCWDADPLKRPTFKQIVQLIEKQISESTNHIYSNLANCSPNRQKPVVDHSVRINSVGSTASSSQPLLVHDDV

FGFR3(G697C) = molecular target: T22, FGFR3(G697C) (Homo sapiens, UniProt P22607, G697C); assay: kinome scan; assay type: binding; conditions: 10 µM
T22 construct: purchased DiscoverX (KINOMEscan)

CSNK1G1 = molecular target: T23, CSNK1G1 (Homo sapiens, UniProt Q9HCP0); assay: kinome scan; assay type: binding; conditions: 10 µM
T23 construct: purchased DiscoverX (KINOMEscan)

PKMYT1 = molecular target: T24, PKMYT1 (Homo sapiens, UniProt Q99640); assay: kinome scan; assay type: binding; conditions: 10 µM
T24 construct: purchased DiscoverX (KINOMEscan)

PHKG1 = molecular target: T25, PHKG1 (Homo sapiens, UniProt Q16816); assay: kinome scan; assay type: binding; conditions: 10 µM
T25 construct: purchased DiscoverX (KINOMEscan)

CLK4 = molecular target: T26, CLK4 (Homo sapiens, UniProt Q9HAZ1); assay: kinome scan; assay type: binding; conditions: 10 µM
T26 construct: purchased DiscoverX (KINOMEscan)

EPHA2 = molecular target: T27, EPHA2 (Homo sapiens, UniProt P29317); assay: kinome scan; assay type: binding; conditions: 10 µM
T27 construct: purchased DiscoverX (KINOMEscan)

MAP3K15 = molecular target: T28, MAP3K15 (Homo sapiens, UniProt Q6ZN16); assay: kinome scan; assay type: binding; conditions: 10 µM
T28 construct: purchased DiscoverX (KINOMEscan)

[2] = test system: Hemoglobin beta chain splicing at IVS2 705 locus; parameters: method as in CHEMBL1614204; conditions: reported activity, data mining; ref CHEMBL1614204; cited from earlier work
MARK1 = molecular target: T29, MARK1 (Homo sapiens, UniProt Q9P0L2); assay: kinome scan; assay type: binding; conditions: 10 µM
T29 construct: purchased DiscoverX (KINOMEscan)

MLK3 = molecular target: T30, MLK3 (Homo sapiens, UniProt Q16584); assay: kinome scan; assay type: binding; conditions: 10 µM
T30 construct: purchased DiscoverX (KINOMEscan)
T30 sequence (Q16584 whole entry): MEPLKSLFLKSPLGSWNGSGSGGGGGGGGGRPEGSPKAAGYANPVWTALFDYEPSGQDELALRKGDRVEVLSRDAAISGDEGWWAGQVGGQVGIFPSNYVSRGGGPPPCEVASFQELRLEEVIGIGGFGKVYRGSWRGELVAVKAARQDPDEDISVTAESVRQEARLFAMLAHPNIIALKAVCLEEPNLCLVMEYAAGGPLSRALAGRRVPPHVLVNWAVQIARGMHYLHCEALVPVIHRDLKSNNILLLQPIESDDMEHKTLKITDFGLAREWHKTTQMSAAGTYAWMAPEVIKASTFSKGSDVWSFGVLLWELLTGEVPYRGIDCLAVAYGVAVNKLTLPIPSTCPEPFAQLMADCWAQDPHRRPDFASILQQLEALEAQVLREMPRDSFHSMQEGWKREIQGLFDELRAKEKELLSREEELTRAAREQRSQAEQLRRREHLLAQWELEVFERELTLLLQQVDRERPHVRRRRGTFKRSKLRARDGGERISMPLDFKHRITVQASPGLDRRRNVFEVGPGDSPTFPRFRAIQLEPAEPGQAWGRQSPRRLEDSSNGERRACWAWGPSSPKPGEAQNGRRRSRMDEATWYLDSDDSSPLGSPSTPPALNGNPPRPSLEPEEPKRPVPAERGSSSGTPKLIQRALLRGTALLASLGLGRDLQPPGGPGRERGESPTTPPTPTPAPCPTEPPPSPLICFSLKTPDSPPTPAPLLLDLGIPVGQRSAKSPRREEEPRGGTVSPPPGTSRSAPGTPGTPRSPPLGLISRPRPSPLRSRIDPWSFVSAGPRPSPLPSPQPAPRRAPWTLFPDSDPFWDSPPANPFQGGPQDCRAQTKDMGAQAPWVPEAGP

ERK2 = molecular target: T31, ERK2 (Homo sapiens, UniProt P28482); assay: kinome scan; assay type: binding; conditions: 10 µM
T31 construct: purchased DiscoverX (KINOMEscan)

PIP5K1C = molecular target: T32, PIP5K1C (Homo sapiens, UniProt O60331); assay: kinome scan; assay type: binding; conditions: 10 µM
T32 construct: purchased DiscoverX (KINOMEscan)

IRAK1 = molecular target: T33, IRAK1 (Homo sapiens, UniProt P51617); assay: kinome scan; assay type: binding; conditions: 10 µM
T33 construct: purchased DiscoverX (KINOMEscan)

ERK4 = molecular target: T34, ERK4 (Homo sapiens, UniProt P31152); assay: kinome scan; assay type: binding; conditions: 10 µM
T34 construct: purchased DiscoverX (KINOMEscan)

DAPK1 = molecular target: T35, DAPK1 (Homo sapiens, UniProt P53355); assay: kinome scan; assay type: binding; conditions: 10 µM
T35 construct: purchased DiscoverX (KINOMEscan)

FLT3(D835Y) = molecular target: T36, FLT3(D835Y) (Homo sapiens, UniProt P36888, D835Y); assay: kinome scan; assay type: binding; conditions: 10 µM
T36 construct: purchased DiscoverX (KINOMEscan)

PIK3CA(M1043I) = molecular target: T37, PIK3CA(M1043I) (Homo sapiens, UniProt P42336, M1043I); assay: kinome scan; assay type: binding; conditions: 10 µM
T37 construct: purchased DiscoverX (KINOMEscan)
T37 sequence (P42336 whole entry M1043I): as the sequence (P42336 whole entry E545K) above, with K545E, M1043I counted along it

GRK4 = molecular target: T38, GRK4 (Homo sapiens, UniProt P32298); assay: kinome scan; assay type: binding; conditions: 10 µM
T38 construct: purchased DiscoverX (KINOMEscan)

[3] = molecular target: T39, RSK4(Kin.Dom.1-N-terminal) (Homo sapiens, UniProt Q9UK32); assay: kinome scan; assay type: binding; conditions: 10 µM
T39 construct: RSK4(Kin.Dom.1-N-terminal); purchased DiscoverX (KINOMEscan)

PHKG2 = molecular target: T40, PHKG2 (Homo sapiens, UniProt P15735); assay: kinome scan; assay type: binding; conditions: 10 µM
T40 construct: purchased DiscoverX (KINOMEscan)
T40 sequence (P15735 whole entry): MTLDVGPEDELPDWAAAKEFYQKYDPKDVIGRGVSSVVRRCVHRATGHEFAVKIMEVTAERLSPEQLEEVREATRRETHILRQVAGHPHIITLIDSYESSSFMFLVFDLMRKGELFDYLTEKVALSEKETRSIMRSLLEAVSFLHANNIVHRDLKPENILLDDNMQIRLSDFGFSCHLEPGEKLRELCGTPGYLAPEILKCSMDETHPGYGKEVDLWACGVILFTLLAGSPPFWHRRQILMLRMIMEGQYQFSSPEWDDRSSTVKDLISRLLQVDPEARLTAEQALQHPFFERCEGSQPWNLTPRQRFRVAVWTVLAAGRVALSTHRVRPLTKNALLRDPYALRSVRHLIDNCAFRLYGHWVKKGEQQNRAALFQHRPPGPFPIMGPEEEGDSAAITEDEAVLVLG

PIP5K1A = molecular target: T41, PIP5K1A (Homo sapiens, UniProt Q99755); assay: kinome scan; assay type: binding; conditions: 10 µM
T41 construct: purchased DiscoverX (KINOMEscan)

T2 sequence (O75747 whole entry): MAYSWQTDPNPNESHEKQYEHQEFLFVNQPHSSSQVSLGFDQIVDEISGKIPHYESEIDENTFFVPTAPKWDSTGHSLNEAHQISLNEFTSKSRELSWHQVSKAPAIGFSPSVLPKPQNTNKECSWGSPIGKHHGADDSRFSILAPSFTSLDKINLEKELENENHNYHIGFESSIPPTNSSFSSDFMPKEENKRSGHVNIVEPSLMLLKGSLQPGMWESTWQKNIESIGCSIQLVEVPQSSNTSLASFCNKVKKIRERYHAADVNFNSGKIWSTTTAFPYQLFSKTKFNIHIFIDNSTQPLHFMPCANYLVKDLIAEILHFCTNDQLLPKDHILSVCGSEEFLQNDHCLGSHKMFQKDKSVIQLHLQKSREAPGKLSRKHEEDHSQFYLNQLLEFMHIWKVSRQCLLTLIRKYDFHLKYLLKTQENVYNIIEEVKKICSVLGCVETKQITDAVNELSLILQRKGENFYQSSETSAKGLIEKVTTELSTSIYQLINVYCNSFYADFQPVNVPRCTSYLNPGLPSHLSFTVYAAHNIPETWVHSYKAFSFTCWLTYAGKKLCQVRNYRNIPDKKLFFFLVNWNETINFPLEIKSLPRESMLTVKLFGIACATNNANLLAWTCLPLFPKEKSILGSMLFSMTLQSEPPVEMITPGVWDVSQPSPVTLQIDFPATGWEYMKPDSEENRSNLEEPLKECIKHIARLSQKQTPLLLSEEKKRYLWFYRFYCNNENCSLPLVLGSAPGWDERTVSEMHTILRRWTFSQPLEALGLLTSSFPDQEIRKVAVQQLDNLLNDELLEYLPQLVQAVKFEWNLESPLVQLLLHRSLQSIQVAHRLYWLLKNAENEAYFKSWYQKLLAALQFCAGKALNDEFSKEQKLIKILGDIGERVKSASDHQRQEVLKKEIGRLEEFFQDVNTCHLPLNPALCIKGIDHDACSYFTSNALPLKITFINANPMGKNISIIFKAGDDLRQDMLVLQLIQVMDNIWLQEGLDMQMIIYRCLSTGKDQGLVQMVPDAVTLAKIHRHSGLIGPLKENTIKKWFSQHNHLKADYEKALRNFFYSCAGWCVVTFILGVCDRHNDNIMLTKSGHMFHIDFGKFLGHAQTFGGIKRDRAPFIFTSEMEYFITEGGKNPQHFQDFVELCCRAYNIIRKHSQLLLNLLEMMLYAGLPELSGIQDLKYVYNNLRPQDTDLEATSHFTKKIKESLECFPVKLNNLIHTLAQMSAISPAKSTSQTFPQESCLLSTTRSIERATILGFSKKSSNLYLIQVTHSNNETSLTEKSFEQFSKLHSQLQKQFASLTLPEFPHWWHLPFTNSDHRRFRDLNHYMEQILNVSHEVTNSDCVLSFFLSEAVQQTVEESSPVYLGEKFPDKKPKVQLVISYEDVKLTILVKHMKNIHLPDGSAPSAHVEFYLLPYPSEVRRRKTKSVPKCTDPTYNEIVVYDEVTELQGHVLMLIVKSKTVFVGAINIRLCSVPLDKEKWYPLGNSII

Compound `Nc1ccc(N=Nc2ccccc2)c(N)n1` [phenazopyridine, 2,6-diamino-3-(phenylazo)pyridine] has a kinase inhibition (TIE1) of 91, a remaining activity (PIK3C2G; 10 µM) of 24 and a remaining binding at 10 µM (PIK3C2G; read-out: % Of control) of 24%. The kinase inhibition (NEK4) was 100, the kinase inhibition [1] was 77 and the kinase inhibition (JNK1) was 78. The kinase inhibition (DCAMKL3) was 92, the kinase inhibition (DLK) was 73 and the kinase inhibition (PIK3CA(E545K)) was 88. It also gave a kinase inhibition (ERBB3) of 91, a kinase inhibition (CDK5) of 90 and a kinase inhibition (CLK1) of 91. For the same compound, the kinase inhibition (ERK3) was 95, the kinase inhibition (IRAK4) was 100 and the “remaining binding (% of control)” value (FLT1) was 90. The kinase inhibition (TAOK2) was 91, the kinase inhibition (CTK) was 98 and the kinase inhibition (EPHB2) was 70. The “remaining binding (% of control)” value (FYN) was 100, the kinase inhibition (AAK1) was 79 and the kinase inhibition (KIT(D816V)) was 100. It also gave a remaining activity (KIT(V559D); KIT(V559D), 10 µM) of 32, a remaining binding at 10 µM (KIT(V559D); c-KIT Val559Asp, best mutant, read-out: Kinome scan (% of control at 10 µM)) of 32% and a kinase inhibition (FGFR3(G697C)) of 100. For the same compound, the kinase inhibition (CSNK1G1) was 85, the kinase inhibition (PKMYT1) was 85 and the kinase inhibition (PHKG1) was 98. For the same compound, the kinase inhibition (CLK4) was 72, the kinase inhibition (EPHA2) was 95 and the kinase inhibition (MAP3K15) was 94. The Concentration [2] was 20 µM, the kinase inhibition (MARK1) was 95 and the kinase inhibition (MLK3) was 100. For the same compound, the kinase inhibition (ERK2) was 92, the kinase inhibition (PIP5K1C) was 42 and the kinase inhibition (IRAK1) was 100. For the same compound, the kinase inhibition (ERK4) was 74, the kinase inhibition (DAPK1) was 86 and the “percent of control (remaining binding)” value (FLT3(D835Y)) was 42. The kinase inhibition (PIK3CA(M1043I)) was 100, the kinase inhibition (GRK4) was 95 and the kinase inhibition [3] was 86. For the same compound, the kinase inhibition (PHKG2) was 100 and the kinase inhibition (PIP5K1A) was 56.

Source: PMC8371461 (Frontiers in Pharmacology, 2021)
